Reference: patent US20060286159A1 (priority 2003, published 2006)
“Also recorded” adds a separate entry of the source.

Assays:
Type in all cases: in vivo, human
[1] = test system: chronic non-insertional Achilles tendinopathy; assay: Non-insertional Achilles tendinopathy clinical trial (randomized, double blind, placebo controlled)
Description: (§1) Three clinical trials were approved by an institutional Ethics Committee. Patients with clinical diagnoses of the specified tendinopathies were recruited through newspaper advertisements and private consulting rooms. All subjects were over 18 years of age, and gave written informed consent.
In the non-insertional Achilles tendinopathy trial, there were 65 patients (84 Achilles tendons) with 40 men and 25 women enrolled in the study, having a median age of 49 years (range 24 to 77 years), and a median duration of symptoms prior to the study of 16 months (range 4 to 147 months). In the extensor tendinopathy trial, there were 86 patients (95 elbows), with 42 males and 44 females, having a median age of 46 years (range 30 to 74 years), and a median duration of symptoms of 17 months (range 3 to 232 months). In the supraspinatus tendinopathy trial, there were 53 patients (57 shoulders), with 24 males and 29 females, having a median age of 52 years (range 25 to 79 years), and a median symptom duration of 14 months (range 4 to 96).
Diagnostic criteria for patient inclusion in the respective trials were as follows. The diagnosis of chronic non-insertional Achilles tendinopathy was based on an insidious onset of Achilles tendon pain, a tender nodule localized to the region 2 to 6 centimeters from the calcaneal insertion, and an ultrasound examination that excluded a frank tendon tear. The diagnosis of chronic extensor tendinopathy at the elbow was based on an insidious onset of lateral elbow pain, tenderness localized to the lateral humeral epicondyle and extensor carpi radialis brevis tendon, pain in the lateral elbow with resisted wrist or third metacarpophalangeal joint extension, and an ultrasound examination that excluded a frank tendon tear. The diagnosis of chronic supraspinatus tendinopathy was based on positive impingement signs (internal or external rotation), pain with supraspinatus muscle testing, and magnetic resonance imaging (MRI) high signal intensity without frank tear in the supraspinatus tendon.
Patients were excluded if they had tendinopathy of less than three months duration, current pregnancy, previous surgery on the affected limb or tendon, dislocation of the ipsilateral limb joints, distal neurological signs, a local corticosteroid injection in the previous three months, the current use of nitrate medications or phosphodiesterase inhibitors such as Viagra™, a family history of arthritis other than osteoarthritis, or extra-articular features of seronegative arthropathies. Generally, every participating patient could be considered to have persistent active tendinopathy.
(§2) The patients were randomly allocated into two groups. […] The active and placebo patches were indistinguishable from one another. The randomization was controlled by the senior pharmacist at the institution who also supervised the packaging of transdermal patches and their distribution to patients. Both the patients and the clinical examiner were blinded as to which group the patients were in, i.e. double-blind.
The transdermal patches were intact when distributed, and patients were required to cut the patches into quarters prior to application. Patients were also given a supply of paracetamol tablets (500 mg), and were instructed to use them exclusively for any headaches experienced.
(§3) Patients were instructed in the application of the patches at their initial visit. They were informed that the dosing regimen was one quarter of a transdermal patch to be applied daily to the skin area closest to the affected tendon. The patches were to be left in situ for 24 hours and then replaced with a new quarter patch. […] Patients were instructed to rotate the patch application site around this point with each new patch application for the six-month study duration in an effort to minimize application site irritation.
At the initial clinical assessment, all patients were instructed in the performance of a tendon specific rehabilitation program. […]

[2] = test system: de Quervain's tendinopathy in the right extensor tendons of the thumb; assay: Example 4: patient case, de Quervain's tendinopathy
Description: A patient suffering de Quervain's tendinopathy in the right extensor tendons of the thumb applies a transdermal patch delivering 10 mcg/hr nitroglycerin for a period of 24 weeks. This condition can be caused due to the arrival of a new baby and the consequent carrying as an unusual daily activity, and as is common, physical therapy and intermittent use of a wrist splint may provide little relief of symptoms.

[3] = test system: chronic overuse tendinopathies; assay: The three tendinopathy clinical trials taken together
Description: as §1, §2, §3
A single examiner assessed all patients and recorded information on clinical outcome measures. All clinical assessments were repeated at week 0, 2, 6, 12, and 24 with an identical format. Records of headaches, paracetamol use, and compliance with patch application and the tendon rehabilitation program were also made at these scheduled visits. Patients were excluded from the trials for non-compliance at any two visits.
Outcome measures were analyzed with Sigmastat 2.0 statistical software (Jandel Scientific, California, U.S.A) using Mann-Whitney rank sum tests to compare differences between groups, and using the Wilcoxon sign rank test to compare differences within the groups. The level of significance was defined at p=0.05. A Chi square analysis of patient reported symptom outcomes at week 24 was performed. Effect size estimates were calculated by dividing the mean z-score, calculated from all outcome measures at week 24, by the square root of the sample size to given a general measure of the overall effect of the patch on pain, tendon force and function.

[4] = GTN group, range over three trials
[5] = GTN groups, range over three trials

O=[N+]([O-])OCC(CO[N+](=O)[O-])O[N+](=O)[O-] [glyceryl trinitrate, 1,2,3-propanetriol trinitrate]
Headache (Days) Average ([1]; GTN group): GTN 5 Days
Headache (Days) Median ([1]; GTN group): GTN 4 Days
Headache (Days) Total ([1]; GTN group): 85 days
Headache: percentage of patients ([1]; GTN group): 53%
No Side Effects ([1]; GTN group): GTN 44%
Other Noted Side-Effects: Increase Tinnitus ([1]; GTN group): Tinnitus (3%)
Tenderness Outcomes: Achilles tenderness vs placebo ([1]; Week 12 (p=0.02)): significant decreases; also recorded: significantly less; also recorded: Decreased Week
Pain Outcomes: Achilles tendon pain with activity vs placebo ([1]; Week 12 (p=0.02) / 24 (p=0.03)): significant decrease; also recorded: Decreased
Pain Outcomes: night pain vs placebo ([1]; Week 12 (p=0.04)): significant decrease; also recorded: Decreased
Functional Outcomes Measures: Hop Test vs placebo ([1]; Week 24): Increased Hop
Force Outcomes: ORI-ASTS mean plantarflexion total work vs placebo ([1]; Week 24 (p=0.04), from baseline levels): significant increase; also recorded: Increased Mean
Other Noted Side-Effects: Rash ([1]; application site, GTN group): Rash 16%,
number needed to treat (NNT) ([1]; excellent result at 24 weeks, Chi square p=0.001): 3.4
total amount of paracetamol required for headache treatment vs placebo ([1]; p=0.001): significant increases; also recorded: significant between-group differences
Discontinuations: Headache ([1]; patients, all GTN group): Headache 1
Discontinuations: Rash ([1]; patients, all GTN group): Rash,
Paracetamol Average ([1]; used for headache, GTN group): GTN 14 tablets
Paracetamol Median ([1]; used for headache, GTN group): GTN 10 tablets
Paracetamol Total ([1]; used for headache, GTN group): GTN 237 tablets
pain scores after the 10 hop test vs placebo ([1]; week 24 (p=0.005)): significant decrease
Improved Patient Outcomes ([1]; week 24, more patients asymptomatic with activities of daily living than placebo, 1.25 mg/24 h patch + rehabilitation): 29%
patients with excellent improvement (asymptomatic with activities of daily living), patient reported ([1]; week 24, placebo 49%): 78%
pain after administration is stopped ([2]; 2 years after stop, negative Finklestein test): continue to have reduced pain
pain during administration ([2]; patch 10 mcg/hr for 24 weeks, person): decrease in pain within one day
headache as a side-effect ([3]; GTN group): majority of patients
average number of days of headache [3, 4]: 5 to 6 days
headache, patients [3, 4]: 53-76%
median number of days of headache [3, 4]: 3 to 4 days
headaches that occurred within the first two weeks of the trial ([3]; GTN groups): 72%
average paracetamol usage [3, 5]: 7-14 tablets
median paracetamol usage [3, 5]: 2-10 tablets
patients that experienced no side-effects [3, 5]: 30-44%
total paracetamol usage [3, 5]: 138-237 tablets
patients experiencing application site rash ([3]; GTN groups, range over three trials, placebo 7-12%): 8-21%
tendon pain with activity vs placebo ([3]; all three trials, timing varied): significantly improved
chance of being asymptomatic with activities of daily living vs placebo (Chi square) ([3]; at 24 weeks, all three clinical trials, p=0.001): significantly increased
more patients than in the placebo group asymptomatic with activities of daily living (rated tendon excellent) ([3]; completion of the trials, range over three trials): 21-29%
changes in patient success rates (binomial effect size displays) ([3]; equivalent to effect sizes at week 24): 12-26%
other side-effects (increase in pre-existing tinnitus, ipsilateral axillary sweating, apprehension): severity and reversibility ([3]; human, in vivo): None of these were severe, and all were reversible on discontinuation of the medication
severity of rash vs placebo ([3]; human, in vivo): greater severity of rash
patients discontinued due to headache ([3]; in each clinical trial): 1-2 patients
severity of headaches vs placebo ([3]; in general): more severe headaches
patients discontinued during the trials ([3]; of clinical trial patients, all in GTN groups, headache or application site rash): 4-6%
patients discontinued due to rash, total ([3]; three trials): five
patients discontinued for recurrent facial flushing ([3]; type 2 diabetic, reversible on discontinuation): One
decrease of patient-rated pain scores, range over the trials ([3]; week 0 compared with week 24): 64-67%
increase of force outcome measures, range over the trials ([3]; week 0 compared with week 24): 33-38%
increase of force outcome measures, average ([3]; week 0 compared with week 24, placebo […]%): 37%
decrease of patient-rated pain scores (with activity, at night, at rest), average ([3]; week 0 compared with week 24, placebo 30%): 65%
force outcome measures vs placebo ([3]; week 24, all three trials): significant increases
mean estimated effect sizes ([3]; week 24, range over three trials): 0.12-0.26
